Experimental data taken from article PMC6506541, “A Bio-inspired Hypoxia Sensor using HIF1a-Oxygen-Dependent Degradation Domain” (Scientific Reports, 2019).

Legend:
Type in all cases: cell-based, Human
MDA-MB 231 cells = experiment: Sensor stabilization by hypoxia-mimetic agents, fluorescence microscopy; conditions: sensor 500 ng/mL, CoCl2 500 μM or L-Mimosine 800 μM vs vehicle, 3 h incubation, wash, further 3 h
Protocol: (§1) Human breast cancer cells MDA-MB 231 were maintained at 37 °C and 5% CO2 in RPMI-1640 (Sigma–Aldrich), supplemented with 10% fetal bovine serum (Fisher Scientific). Cells were seeded at a density of 2·10^5 cells per well in 6-multiwell plates 24 h prior treatment. For hypoxia induction, they were treated with either CoCl2 (Sigma–Aldrich) at a final concentration of 500 μM, or L-Mimosine (Sigma–Aldrich) at a final concentration of 800 μM. Treatment with each peptidic sensor (500 ng/mL) was carried out in the presence of the aforementioned inhibitors. After three hours of incubation, supernatants containing the probes and either CoCl2 or L-Mimosine were aspirated, cells were washed once with PBS 1X and fresh medium, containing again either CoCl2 or L-Mimosine, was added to the cells for an extended incubation of three hours. Treatment with proteasome inhibitor MG-132 (Sigma-Aldrich) was carried out for 6 hours at final concentrations of either 20 μM or 40 μM, upon pre-treatment of the cells with the probes, as described previously. Fluorescent probes internalization was quantified using ImageJ (NIH). Quantified fluorescence was expressed as values of corrected total cell fluorescence (CTCF), which was calculated using the formula CTCF = integrated density – (area of selected cell × mean fluorescence of background readings)[44].

proteasome = experiment: Sensor degradation under proteasome inhibitor MG-132; conditions: MDA-MB 231 cells; MG-132 20 μM or 40 μM, 6 h, after pre-treatment with probe
Protocol: as §1

HA-tagged ubiquitin = experiment: Immunoprecipitation of HA-tagged ubiquitinated sensor; conditions: MDA-MB 231 cells transfected with pcDNA3-Ub-HA; 5 h with sensor; anti-HA immunoprecipitation; IVIS fluorescence
Protocol: MDA-MB 231 cells were seeded at a density of 2·10^5 cells per well in 6-multiwell plates twenty-four hours prior transfection. Each well was transfected with 2 μg of either pcDNA3-Ub-HA or empty vector pcDNA3 (Invitrogen) using Superfect (Qiagen) as transfection reagent. Twenty-four hours upon transfection culture medium was removed, cells were washed carefully with phosphate buffered saline (PBS; Sigma-Aldrich) and fresh culture medium containing the peptidic sensor 1 was added onto the cells. PBS was used as mock treatment. Five hours upon treatment with the sensor, cells were lysed in native immunoprecipitation buffer, 20 mM Tris·HCl pH 8, 137 mM NaCl,10% glycerol,1% Nonidet P-40 (NP-40), 2 mM EDTA, containing the protease inhibitors sodium orthovanadate (1 mM), PMSF (2 mM) and aprotinin (1 μg/mL) (Sigma-Aldrich). Each immunoprecipitation contained 600 μg of whole protein extract and were incubated overnight with 5 μg of anti-hemagglutinin HA.11 (Clone 16B12) antibody (Abcam) at 4 °C. Equal amounts of rabbit immunoglobulins (Sigma-Aldrich) were used as control. HA-tagged ubiquitins were immunoprecipitated using Protein G-coupled agarose (Santa Cruz), subsequently washed with immunoprecipitation buffer and eluted under native conditions. Fluorescence images were taken using an IVIS Spectrum system (Perkin-Elmer).

“LDLEMLAPYIPMDDDFQL [compound 1, 5(6)-ROX-labelled HIF-1α ODD domain peptide (Leu557-Leu574) linked to octa-arginine by O2Oc PEG linkers]” was tested, and the “stabilization of sensor fluorescence (inhibition of sensor degradation) by hypoxia mimetics” value (MDA-MB 231 cells) was “stabilized in the presence of both molecules that mimic hypoxia”, the “effect of proteasome inhibitor MG-132 on degradation of sensor fluorescent signal” value (proteasome) was “dose-dependent effect on proteasome degradation of fluorescent signal” and the “ubiquitination of sensor (enrichment by HA immunoprecipitation)” value (HA-tagged ubiquitin) was “degradation of the sensor is ubiquitin proteasome-regulated”.
